Test results: article PMC5415745, “Drug-transporter mediated interactions between anthelminthic and antiretroviral drugs across the Caco-2 cell monolayers” (BMC Pharmacology & Toxicology, 2017)
Values joined by “and” are separate entries in the source; they are usually repeats but may differ in a detail not shown here. Equal entries are not always repeated.

Assays:
Caco-2 cell monolayers = test: Bidirectional (AP→BL, BL→AP) drug transport across Caco-2 cell monolayers in transwells: cumulative transport, Papp, efflux ratio; HPLC or radiolabeled assay
[1] = as above; conditions: human
[2] = cited from earlier work
[3] = SQV alone (PZQ experiment), 60 min, mean
[4] = SQV alone (PZQ experiment), 60 min, samples 1-3
[5] = SQV alone (PZQ experiment), 120 min, mean
[6] = SQV alone (PZQ experiment), 120 min, samples 1-3
[7] = SQV alone (PZQ experiment), 180 min, mean
[8] = SQV alone (PZQ experiment), 180 min, samples 1-3
[9] = SQV alone (PZQ experiment), 240 min, mean
[10] = SQV alone (PZQ experiment), 240 min, samples 1-3
[11] = SQV alone (PZQ experiment), after 60min, mean
[12] = SQV alone, 60 min, individual experiments 1-3
[13] = SQV alone, 180 min, individual experiments 1-3
[14] = SQV alone, 240 min, individual experiments 1-3
[15] = SQV alone, after 60 min, samples 1-3
[16] = labelled drug is the interacting drug
[17] = Caco-2, Papp AP → BL, mean (n=3) after 60 min, drug A alone, or label 'A + B' = transport of A in presence of interacting drug B, concentrations per Table 1
[18] = Caco-2, Papp BL → AP, mean (n=3) after 60 min, drug A alone, or label 'A + B' = transport of A in presence of interacting drug B, concentrations per Table 1
[19] = [3H] LPV alone, 60 min, individual experiments 1-3
[20] = [3H] LPV alone, 60 min, mean, n=3
[21] = [3H] LPV alone, 120 min, individual experiments 1-3
[22] = [3H] LPV alone, 120 min, mean, n=3
[23] = [3H] LPV alone, 180 min, individual experiments 1-3
[24] = [3H] LPV alone, 180 min, mean, n=3
[25] = [3H] LPV alone, 240 min, individual experiments 1-3
[26] = [3H] LPV alone, 240 min, mean, n=3
[27] = [3H] LPV alone, after 60 min, samples 1-3

What does the source list for `CC(C)(C)NC(=O)[C@@H]1C[C@@H]2CCCC[C@@H]2CN1C[C@@H](O)[C@H](Cc1ccccc1)NC(=O)[C@H](CC(N)=O)NC(=O)c1ccc2ccccc2n1` [SQV, saquinavir]?
Apical to basal transport Mean (Caco-2 cell monolayers; [3]): 3.18 pmol; Basal to apical transport Mean (Caco-2 cell monolayers; [3]): 6.29 pmol; Apical to basal transport (Caco-2 cell monolayers; [4]): 3.93 pmol and 2.52 pmol and 3.10 pmol; Basal to apical transport (Caco-2 cell monolayers; [4]): 5.98 pmol and 5.60 pmol and 7.29 pmol; Apical to basal transport Mean (Caco-2 cell monolayers; [5]): 4.32 pmol; Basal to apical transport Mean (Caco-2 cell monolayers; [5]): 11.52 pmol; Apical to basal transport (Caco-2 cell monolayers; [6]): 4.59 pmol and 4.09 pmol and 4.29 pmol; Basal to apical transport (Caco-2 cell monolayers; [6]): 10.77 pmol and 11.26 pmol and 12.52 pmol; Apical to basal transport Mean (Caco-2 cell monolayers; [7]): 5.73 pmol; Basal to apical transport Mean (Caco-2 cell monolayers; [7]): 16.09 pmol; Apical to basal transport (Caco-2 cell monolayers; [8]): 5.76 pmol and 5.30 pmol and 6.14 pmol; Basal to apical transport (Caco-2 cell monolayers; [8]): 16.14 pmol and 16.78 pmol and 15.35 pmol; Apical to basal transport Mean (Caco-2 cell monolayers; [9]): 6.40 pmol; Basal to apical transport Mean (Caco-2 cell monolayers; [9]): 20.56 pmol; Apical to basal transport (Caco-2 cell monolayers; [10]): 6.59 pmol and 5.67 pmol and 6.93 pmol; Basal to apical transport (Caco-2 cell monolayers; [10]): 18.19 pmol and 23.27 pmol; PappAB Mean (Caco-2 cell monolayers; [11]): 6.56 ×10⁻⁶ cm/s; PappBA Mean (Caco-2 cell monolayers; [11]): 10.8 ×10⁻⁶ cm/s; Apical to basal transport (Caco-2 cell monolayers; [12]): 2.74 pmol and 2.54 pmol and 3.32 pmol; Basal to apical transport (Caco-2 cell monolayers; [12]): 8.18 pmol and 6.66 pmol and 9.42 pmol; Apical to basal transport Mean (Caco-2 cell monolayers; SQV alone, 60 min, mean, n=3): 2.87 pmol; Basal to apical transport Mean (Caco-2 cell monolayers; SQV alone, 60 min, mean, n=3): 8.09 pmol; Apical to basal transport Mean (Caco-2 cell monolayers; SQV alone, 120 min, mean, n=3): 5.52 pmol; Basal to apical transport Mean (Caco-2 cell monolayers; SQV alone, 120 min, mean, n=3): 14.27 pmol; Apical to basal transport (Caco-2 cell monolayers; [13]): 7.42 pmol and 7.24 pmol and 8.40 pmol; Basal to apical transport (Caco-2 cell monolayers; [13]): 18.6 pmol and 17.14 pmol and 18.78 pmol; Apical to basal transport Mean (Caco-2 cell monolayers; SQV alone, 180 min, mean, n=3): 7.69 pmol; Basal to apical transport Mean (Caco-2 cell monolayers; SQV alone, 180 min, mean, n=3): 18.17 pmol; Apical to basal transport (Caco-2 cell monolayers; [14]): 9.18 pmol and 8.8 pmol; Basal to apical transport (Caco-2 cell monolayers; [14]): 21.42 pmol and 26.66 pmol; Apical to basal transport Mean (Caco-2 cell monolayers; SQV alone, 240 min, mean, n=3): 9.74 pmol; Basal to apical transport Mean (Caco-2 cell monolayers; SQV alone, 240 min, mean, n=3): 23.51 pmol; Apical to basal transport Conc. Apical (Caco-2 cell monolayers; [15]): 23.25 pmol and 22.93 pmol; Basal to apical transport Conc. Basal (Caco-2 cell monolayers; [15]): 19.35 pmol and 21.54 pmol and 28.21 pmol; PappAB Papp (Caco-2 cell monolayers; [15]): 6.59 ×10⁻⁶ cm/s and 7.13 ×10⁻⁶ cm/s; PappBA Papp (Caco-2 cell monolayers; [15]): 18.4 ×10⁻⁶ cm/s and 19.9 ×10⁻⁶ cm/s; Effect on the transport of PZQ (Caco-2 cell monolayers; [16]): did not affect; Papp AP → BL (Caco-2 cell monolayers; mean (n=3) after 60 min, drug A alone, or label 'A + B' = transport of A in presence of interacting drug B, concentrations per Table 1): 6.6 ×10⁻⁶ cm/s; Papp A→B at 60 min [1, 17]: 6.9 ×10⁻⁶ cm/s; Papp B→A at 60 min [1, 18]: 21.1 ×10⁻⁶ cm/s; Papp A→B at 60 min ([1]; Caco-2, PappAB Papp, SQV alone, after 60 min, samples 1-3): 7.01 ×10⁻⁶ cm/s; Papp B→A at 60 min ([1]; Caco-2, PappBA Papp, SQV alone, after 60 min, samples 1-3): 25.1 ×10⁻⁶ cm/s; Log Kow [2]: 2.5

Which “Apical to basal transport” value (Caco-2 cell monolayers; [19]) does the source give for `Cc1cccc(C)c1OCC(=O)N[C@@H](Cc1ccccc1)[C@@H](O)C[C@H](Cc1ccccc1)NC(=O)[C@H](C(C)C)N1CCCNC1=O` [LPV, lopinavir] here?
Its value is 0.92 pmol and 0.73 pmol and 0.68 pmol.

What about the “Basal to apical transport” value (Caco-2 cell monolayers; [19]) of the same compound?
Its value is 4.42 pmol and 4.44 pmol and 5.33 pmol.

And the “Apical to basal transport Mean” value (Caco-2 cell monolayers; [20])?
Its value is 0.78 pmol.

And the “Basal to apical transport Mean” value (Caco-2 cell monolayers; [20])?
The value was 4.73 pmol.

And the “Apical to basal transport” value (Caco-2 cell monolayers; [21])?
Its value is 1.24 pmol and 1.79 pmol and 1.27 pmol.

And the “Basal to apical transport” value (Caco-2 cell monolayers; [21])?
The value was 7.38 pmol and 6.91 pmol and 8.43 pmol.

What about the “Apical to basal transport Mean” value (Caco-2 cell monolayers; [22]) of the same compound?
Its value is 1.43 pmol.

What about the “Basal to apical transport Mean” value (Caco-2 cell monolayers; [22]) of the same compound?
Its value is 7.57 pmol.

What about the “Apical to basal transport” value (Caco-2 cell monolayers; [23]) of the same compound?
The value was 1.93 pmol and 2.34 pmol and 1.52 pmol.

What about the “Basal to apical transport” value (Caco-2 cell monolayers; [23]) of the same compound?
The value was 9.01 pmol and 8.46 pmol and 10.62 pmol.

And the “Apical to basal transport Mean” value (Caco-2 cell monolayers; [24])?
Its value is 1.93 pmol.

What about the “Basal to apical transport Mean” value (Caco-2 cell monolayers; [24]) of the same compound?
Its value is 9.36 pmol.

What about the “Apical to basal transport” value (Caco-2 cell monolayers; [25]) of the same compound?
Its value is 2.15 pmol and 2.71 pmol and 1.78 pmol.

What about the “Basal to apical transport” value (Caco-2 cell monolayers; [25]) of the same compound?
The value was 11.97 pmol and 11.41 pmol and 12.04 pmol.

What about the “Apical to basal transport Mean” value (Caco-2 cell monolayers; [26]) of the same compound?
The value was 2.21 pmol.

And the “Basal to apical transport Mean” value (Caco-2 cell monolayers; [26])?
The value was 11.81 pmol.

What about the “PappBA Mean” value (Caco-2 cell monolayers; [3H] LPV alone, after 60 min, mean, n=3) of the same compound?
The value was 32.09 10^9 cm/s.

What about the “Apical to basal transport Conc. Apical” value (Caco-2 cell monolayers; [27]) of the same compound?
Its value is 18.43 pmol and 19.89 pmol.

And the “Basal to apical transport Conc. Basal” value (Caco-2 cell monolayers; [27])?
The value was 14.48 pmol and 17.27 pmol and 21.60 pmol.

What about the “Effect on the transport of IVM” value (Caco-2 cell monolayers; [16]) of the same compound?
The value was “twofold decrease in the efflux ratio”.

And the Papp A→B at 60 min [1, 17]?
Its Papp A→B at 60 min is 4.8 ×10⁻⁶ cm/s.

And the Papp B→A at 60 min [1, 18]?
Its Papp B→A at 60 min is 32.1 ×10⁻⁶ cm/s.

And the Papp A→B at 60 min ([1]; Caco-2, PappAB Papp, [3H] LPV alone, after 60 min, samples 1-3)?
Its Papp A→B at 60 min is 5.95 ×10⁻⁶ cm/s.

And the Papp B→A at 60 min ([1]; Caco-2, PappBA Papp, [3H] LPV alone, after 60 min, samples 1-3)?
Its Papp B→A at 60 min is 36.3 ×10⁻⁶ cm/s.
